These results are taken from US10428336B2, “Method for modulating plant growth” (The Australian National University, priority 2013, dated 2019).

One assay has as its system M. truncatula roots. The experiment in a line: Exogenous application of synthetic CEP peptides to M. truncatula roots. The class given is in vivo, Medicago truncatula. The following applies: synthetic ligand applied to roots. An excerpt:
The CEP peptides were synthesized at the Biomolecular Resource Facility, The Australian National University. The 15 amino acid (aa) peptides corresponding to the conserved domains of MtCEP1 (AFQHypTTPGNSHypGVGH and EFQKTNPGHSHypGVGH—SEQ ID Nos: 451 and 452 respectively—where Hyp indicates hydroxy proline residue) and M. hapla MhCEP2 (AFRHypTAPGHSHypGVGH; SEQ ID NO: 453) were synthesized and validated as previously described in Djordjevic M A, et al. (2011), “Border sequences of Medicago truncatula CLE36 are specifically cleaved by endoproteases common to the extracellular fluids of Medicago and soybean”, J Exp Bot 62(13):4649-4659. The root length of wild-type plants was measured four days after transfer to Fåhraeus-medium containing the synthetic peptide. For the hormone assays, A17 plants were grown on Fåhraeus-medium for 10 days before transferring to Fåhraeus-medium containing 10^−6 M of the respective phytohormones; 1-aminocyclopropane-1-carboxylic acid (ACC), 6-benzylaminopurine (BAP), gibberellic acid (GA), synthetic analog of strigolactone (GR24), methyl jasmonate (MeJA) and 1-naphthaleneacetic acid (NAA).

For the next assay, the system named is Arabidopsis root growth. The conditions noted are these: synthetic 15 amino acid peptide at 10^−6 M to 10^−7 M; cited from earlier work.
The test system of assay [1] is Brachypodium distachyon BD21. The experiment in a line: Shoot growth of B. distachyon in layered agar medium containing CEP peptide. The class given is in vivo. The conditions noted are these: 16 day old plants, 1 μM peptide in medium with barrier; for shoot length: vs no peptide controls, ANOVA. As for the experimental part: Brachypodium. distachyon BD21 seeds were sterilised by washing in 80% ethanol for 1 minute, followed by shaking in 50 ml of 10% stock sodium hypochlorite (Northfork) with 200 μl of Triton X-100 (per 50 mL) for 5 minutes, before rinsing three times in sterile water. Seeds were then stratified for 3 days in the dark at 4° C. to induce synchronized germination. Plants were grown at 21° C. on a 16/8 h light/dark cycle in a constant environment walk-in cabinet (100 μmol/m^−2/s^−2).
Murashige and Skoog basal medium (Sigma-Aldrich Corporation, St. Louis, USA) was prepared (2.2 g/L, sterile RO water), 10% MES buffer added, and the pH adjusted to 5.7 using 1 M KOH. Falcon tubes (BD Biosciences, Australia; 50 mL max volume) containing two agar layers were prepared using the following ranges of agar concentrations: 0.2%, 0.4%, 0.5%, 0.8%, 1.0% for soft top layer and 0.5%, 1.0%, 1.5%, 2.0%, 2.5%, 3.0% and 4.0% for hard bottom layer. Type-M agar (Sigma-Aldrich Corporation) was used in all experiments. The hard layers contained 15 mL of agar and the (upper) soft layers contained 10 mL of agar. Seeds were placed one per falcon tube for root assays, with embryos facing away from the media.
Synthetic CEP peptides corresponding to those predicted to be the final products of the BdCEP1 and AtCEP5 coding sequences (SEQ ID NOs: 483 and 11, respectively) were prepared (but the BdCEP1 peptide was synthesized missing the first two amino acids, and designated as BdCEP3a in FIGS. 16 and 17) and added to molten media (60° C.) to a final concentration of 1μM.
Tubes were set up with optimal agar concentrations of 0.5% for soft top layer and 2.5% for hard bottom layer which induced a strong mechanical response in untreated plants. A layered agar system with no peptide addition and an un-layered system (0.5%, uniform agar concentration; 25 ml) with no peptide addition were used as controls. Each tube was fitted into an 8 slot Falcon tube rack which was covered in aluminum foil to minimize light exposure to the root systems. This system allowed tubes to be periodically removed for easy visual inspection. The upper level of the soft layer was below the level of the rack.
Shoot length was measured at the end of the growth period. Data obtained from analyzing root system measurements were statistically analyzed.

The test system of assay [2] is Arabidopsis thaliana (accession Col-0). The experiment in a line: Root growth assay of Col-0 plants on standard medium supplemented with synthetic CEP peptides. The assay is classed as in vivo. The following applies: 12-day-old Col-0 plants, peptide at 10−6 M (1 μM), compared to untreated plants. As for the experimental part: FIG. 8—CEP synthetic peptides decrease primary root length and lateral root density. (A) CEP peptides used in growth assays. (hyP) indicates hydroxyproline residues. (B) Alignment of CEP3, CEP5 and CEP9.1 peptide domains. (C) Primary root length and lateral root density of 12-day-old Col-0 plants grown on standard medium supplemented with 1 μM of the specified peptide. n≥7 plants. (D) Differential biological activity of CEP3, CEP5 and CEP9 peptide variants. The histogram indicates the lowest concentration at which a peptide elicited a significant reduction in primary root length compared to untreated plants (P<0.05). Col-0 plants were grown vertically for 12 days on standard medium supplemented with peptide concentrations ranging from 10^−6 M to 10^−12 M. n=7-16 plants. Error bars show standard error. *P≤0.05; **P≤0.01; *** P≤0.001 (two-sample t-test, Genstat).
For root assays, seeds of Arabidopsis thaliana (accession Col-0) were surface sterilized with 6.25% bleach, stratified for 3-4 days and sown onto plates. […] Plates were imaged using an Epson scanner and images were analysed using the SmartRoot plugin (Lobet et al., 2011) in ImageJ. Statistically significant differences were determined using a two-sample t-test (Genstat 14th edition) where appropriate. […]

Square brackets hold non-standard residues; d marks the D form. Ends that are not written are not given here. Hyp = O=C(O)[C@@H]1C[C@@H](O)CN1

“AFQHypTTPGNSHypGVGH and EFQKTNPGHSHypGVGH [MtCEP1]”: the “root phenotype (periodic bumps resembling galls)” value in the assay with M. truncatula roots is listed as “periodic bumps induced”. On to AFR[Hyp]TAPGHS[Hyp]GVGH [MhCEP2], for which, in the assay with M. truncatula roots, the “root phenotype (periodic bumps resembling galls)” value is “periodic bumps induced”. As for “CEP1: synthetic 15 amino acid CEP1 peptide of Ohyama et al., 2008 (DFRPTNPGNSPGVGH; ends and bridges not checked; listed as Arabidopsis thaliana)”, the root growth entry in the assay on Arabidopsis root growth was “inhibited root growth”.

In the case of DFRPTTPGHSPGIGH [AtCEP5], in assay [1], the “number of leaves per plant on average” value worked out at 4.9 leaves and the shoot length entry is given as “significantly longer shoots”. Regarding “DFVPTSPGNSPGVGH [CEP9.1, synthetic non-hydroxylated CEP9.1 peptide domain]”, in assay [2], the lateral root density entry is “reduced lateral root density” and the primary root length entry was “much weaker effect on primary root length”.

“DSTTPGHSPSIGH (also: hydroxyproline predicted at Pro5 and Pro9, not given here for synthetic peptide) [BdCEP1, BdCEP1 peptide synthesized missing the first two amino acids, designated BdCEP3a]”: in assay [1], the “number of leaves per plant on average” value is given as 4.7 leaves and the shoot length result is on record as “significantly longer shoots”.
